Test results published in paper PMC6768106, “The crystal structure of AcrR from Mycobacterium tuberculosis reveals a one‐component transcriptional regulation mechanism” (FEBS Open Bio, 2019).

Biological target: AcrR (Mycobacterium tuberculosis, UniProt O07229)
Sequence (O07229 entry or part of it): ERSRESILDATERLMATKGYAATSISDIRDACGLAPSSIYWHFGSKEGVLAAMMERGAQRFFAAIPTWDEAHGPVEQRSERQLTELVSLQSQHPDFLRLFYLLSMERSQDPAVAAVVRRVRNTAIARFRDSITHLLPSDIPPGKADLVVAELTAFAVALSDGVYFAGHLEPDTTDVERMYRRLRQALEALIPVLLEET

SMILES: CCCCCCCCCCCCCCCC(=O)O [palmitate]
- STD-NMR; also EMSA (promoter DNA release) and CD titration: which reveals the binding between AcrR and palmitate
